# Test results: patent US9587471B2, “Controlling bioavailability of nutrient additions in subsurface formations” (E I DU PONT DE NEMOURS AND COMPANY, priority 2008, dated 2017)
# Legend:
# [1] = tested on: Pseudomonas stutzeri strain LH4:15 (ATCC PTA-8823); experiment: Aerobic growth response (turbidity) to varying concentrations of industrial preservatives; assay type: cell-based;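 on growth (turbidity): single plus means slight turbidity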
# Protocol: Typically cells were grown at a temperature in the range of about 25° C. to about 40° C. in an appropriate medium.
# Pseudomonas stutzeri strain LH4:15 (ATCC PTA-8823) was grown as outlined in Example 1. Various preservatives commonly used in the food, cosmetic, and water treatment industries were tested for their inhibitory effect at various concentrations (Table 2). Growth was monitored visually and positive growth was indicated by moderate to heavy turbidity.
# [2] = tested on: Pseudomonas stutzeri strain LH4:15 (ATCC PTA-8823); experiment: Anaerobic growth and survival: biocidal versus biostatic inhibition; assay type: cell-based; conditions: for change in Log cell number: day 0 vs day 7, anaerobic; for Final anaerobic vial OD: starting OD600 = 0.05
# Protocol: In this invention, the anaerobic growth and survival was tested in 20 ml crimp-capped anaerobic vials, using a complete nutrient medium of the following composition: Na2HPO4.7H2O, 1.4 g/L, KH2PO4, 0.69 g/L, NH4Cl, 0.5 g/L, MgSO4.7H2O, 0.1/L g, SL-10 trace metals, 10 ml, NaCl, 7.5 g/L, NaHCO3, 7.2 g/L, sodium nitrate, 12 g/L, Na lactate, 7 g/L, yeast extract, 10 mg/L, pH 7.3-7.8.
# The anaerobic growth and survival was tested as outlined above. […] Vials were inoculated using an overnight aerobic culture of Pseudomonas stutzeri strain LH4:15 (ATCC PTA-8823) in Luria Bertani medium (LB, Mediatech Inc., Herndon, Va.,) at a final OD600 of 0.05. Within 2 hours of inoculation, serial dilutions from each treatment vial were made into aerobic LB medium to determine the cell numbers at Day 0. After approximately 24 hours cell numbers were estimated by noting the highest positive dilution based on the presence or absence of turbidity in dilutions of 10^−1 to 10^−11 in the serial dilution plates. Cell numbers on Day 0 and Day 7 were measured to obtain a survival estimate during inhibitor exposure.
# [3] = Partition coefficient in an oil/water system; assay type: physicochemical
# Protocol: In this Example a contribution to inhibitor dissipation made by adsorption of the inhibitor into the oil phase may be observed. For example, nitrate as a nitrogen source and electron acceptor and glucose as a growth substrate, each at 25 g/L concentration, may be added in combination to the injection water stream. In addition, benzalkonium chloride may be added to the inhibited nutrient composition. The composition may be pumped into the oil well formation for 5 hours. The industrial biocide inhibits growth of microbial populations in the oil well formation independent of the added nutrient concentrations. As illustrated in Example 2 until the benzalkonium chloride reaches a concentration of <0.1 g/L, microbial growth is inhibited. Using physical parameters common in oil well formations found in unconsolidated sandstone regions of the North Slope, dispersion modeling determines that it will take approximately fourteen days for flow dispersion to dilute benzalkonium chloride to approximately <0.1 g/L. In addition, it may be empirically determined, through laboratory experimentation, that the partition coefficient for benzalkonium chloride in an oil/water system is approximately 10. Therefore, rather than adding benzalkonium chloride at 2% concentration based on dispersion modeling, it is added at a 10% initial concentration to counter act losses due to adsorption. […]
substance,measurement,setting,value
Benzalkonium chloride,growth (turbidity),[1]; 0.0001 g/L,++
same,growth (turbidity),[1]; 0.001 g/L,++
same,growth (turbidity),[1]; 0.005 g/L,++
same,growth (turbidity),[1]; 0.01 g/L,++
same,growth (turbidity),[1]; 0.1 g/L,−
same,growth (turbidity),[1]; 0.5 g/L,−
same,growth (turbidity),[1]; 1 g/L,−
same,concentration that must be reached before inhibition of microbial growth ends,[1]; stated 'as illustrated in Example 2',< 0.1 g/L
same,change in Log cell number,[2]; 0.01 g/L,0
same,Final anaerobic vial OD,[2]; 0.01 g/L,0.12
same,change in Log cell number,[2]; 0.04 g/L,0
same,Final anaerobic vial OD,[2]; 0.04 g/L,0.01
same,change in Log cell number,[2]; 0.08 g/L,−4
same,Final anaerobic vial OD,[2]; 0.08 g/L,0.02
same,change in Log cell number,[2]; 0.1 g/L,Dead
same,Final anaerobic vial OD,[2]; 0.1 g/L,0.02
same,change in Log cell number,[2]; 0.5 g/L,Dead
same,Final anaerobic vial OD,[2]; 0.5 g/L,0.06
same,change in Log cell number,[2]; 1 g/L,Dead
same,Final anaerobic vial OD,[2]; 1 g/L,0.32
same,concentration that killed the cells on Day 0,[2]; anaerobic vials,≥ 0.1 g/L
same,partition coefficient,[3],approximately 10
